{
  "source": "patent US9486506B2",
  "about": "(Novo Nordisk A/S, priority 2011, dated 2016)",
  "molecular_target": "T1, glucagon receptor (Homo sapiens, UniProt P47871)",
  "T1 construct": "expressed in transfected cells",
  "T1 sequence (P47871 26-477)": "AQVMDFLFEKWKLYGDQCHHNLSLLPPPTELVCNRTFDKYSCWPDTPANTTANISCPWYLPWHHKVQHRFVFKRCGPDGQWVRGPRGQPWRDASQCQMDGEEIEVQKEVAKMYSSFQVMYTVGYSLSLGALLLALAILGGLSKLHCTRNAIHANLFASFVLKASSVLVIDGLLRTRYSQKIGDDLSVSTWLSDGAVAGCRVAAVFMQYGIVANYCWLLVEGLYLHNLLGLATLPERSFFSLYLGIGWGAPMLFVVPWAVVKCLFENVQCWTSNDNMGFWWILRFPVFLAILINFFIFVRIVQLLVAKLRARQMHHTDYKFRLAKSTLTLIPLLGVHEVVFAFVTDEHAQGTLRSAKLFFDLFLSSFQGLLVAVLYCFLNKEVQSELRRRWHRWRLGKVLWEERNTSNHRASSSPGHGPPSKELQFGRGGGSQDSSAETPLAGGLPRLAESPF",
  "assay": "Assay (I) Glucagon activity (cAMP biosensor, FLIPR)",
  "type": "cell-based",
  "method": "The cells (14000 per well) were incubated (37° C., 5% CO2) overnight in 384-well plates. Next day the cells were loaded with a calcium responsive dye that only distributed into the cytoplasm. Probenecid, an inhibitor of the organic anion transporter, was added to prevent the dye from leaving the cell. A PDE inhibitor was added to prevent formatted cAMP from being degraded. The plates were placed into a […] and the glucagon analogues were added. End point data were collected after 6 minutes. An increase in intracellular cAMP was proportional to an increased in calcium concentrations in the cytoplasm. When calcium was bound the dry a fluorescence signal was generated. EC50-values were calculated in Prism5.",
  "note": "pEC50: −log10 of the molar value. Numbered stars: 1 amine (or outer) side, 2 acyl side, 3 side chain; on linkers, the order of the positions; unused ones are H or OH. Side chains are listed from the residue outwards. Peptide text beside a SMILES is read from it. * marks the point of attachment. C18 diacid = O=C(O)CCCCCCCCCCCCCCCCC(=O)*; γGlu = O=C(O)[C@H](CCC(=O)[*:2])N[*:1]; AEEA = NCCOCCOCC(=O)O",
  "data": [
    {"smiles": "CC[C@H](C)[C@H](NC(=O)[C@H](CC(N)=O)NC(=O)[C@H](CC(C)C)NC(=O)[C@H](CC(C)C)NC(=O)[C@H](Cc1c[nH]c2ccccc12)NC(=O)[C@H](CCCCNC(=O)CC[C@H](NC(=O)COCCOCCNC(=O)COCCOCCNC(=O)CC[C@H](NC(=O)CCCCCCCCCCCCCCCCC(=O)O)C(=O)O)C(=O)O)NC(=O)[C@@H](NC(=O)[C@H](Cc1ccccc1)NC(=O)[C@H](CC(=O)O)NC(=O)[C@H](CCC(N)=O)NC(=O)[C@H](C)NC(=O)[C@H](CCCNC(=N)N)NC(=O)[C@H](CCCNC(=N)N)NC(=O)[C@H](CO)NC(=O)[C@H](CCC(=O)O)NC(=O)[C@H](CC(C)C)NC(=O)[C@H](Cc1ccc(O)cc1)NC(=O)[C@H](CCCCN)NC(=O)[C@H](CO)NC(=O)[C@H](Cc1ccc(O)cc1)NC(=O)[C@H](CC(=O)O)NC(=O)[C@H](CO)NC(=O)[C@@H](NC(=O)[C@H](Cc1ccccc1)NC(=O)[C@@H](NC(=O)CNC(=O)[C@H](CCC(N)=O)NC(=O)[C@H](CO)NC(=O)[C@@H](N)Cc1c[nH]cn1)[C@@H](C)O)[C@@H](C)O)C(C)C)C(=O)O", "note": "[Example 32, N^ε24-[(4S)-4-carboxy-4-[[2-[2-[2-[[2-[2-[2-[[(4S)-4-carboxy-4-(17-carboxyheptadecanoylamino)butanoyl]amino]ethoxy]ethoxy]acetyl]amino]ethoxy]ethoxy]acetyl]amino]butanoyl]-[Glu15,Lys24,Leu27,Ile29]-Glucagon]", "values": [
      {"measurement": "pEC50", "value": 8.95}
    ]},
    {"smiles": "CC(C)C[C@H](NC(=O)[C@H](Cc1ccc(O)cc1)NC(=O)[C@H](CCCCN)NC(=O)[C@H](CO)NC(=O)[C@H](Cc1ccc(O)cc1)NC(=O)[C@H](CC(=O)O)NC(=O)[C@H](CO)NC(=O)[C@@H](NC(=O)[C@H](Cc1ccccc1)NC(=O)[C@@H](NC(=O)CNC(=O)[C@H](CCC(N)=O)NC(=O)[C@H](CO)NC(=O)[C@@H](N)Cc1c[nH]cn1)[C@@H](C)O)[C@@H](C)O)C(=O)N[C@@H](CCC(=O)O)C(=O)N[C@@H](CO)C(=O)N[C@@H](CCCNC(=N)N)C(=O)N[C@@H](CCCNC(=N)N)C(=O)N[C@@H](C)C(=O)N[C@@H](CCC(N)=O)C(=O)N[C@@H](CC(=O)O)C(=O)N[C@@H](Cc1ccccc1)C(=O)N[C@H](C(=O)N[C@@H](CCCCNC(=O)CC[C@H](NC(=O)COCCOCCNC(=O)COCCOCCNC(=O)CC[C@H](NC(=O)CCCCCCCCCCCCCCCCC(=O)O)C(=O)O)C(=O)O)C(=O)N[C@@H](Cc1c[nH]c2ccccc12)C(=O)N[C@@H](CC(C)C)C(=O)N[C@@H](CC(C)C)C(=O)N[C@@H](CC(N)=O)C(=O)N[C@H](C(=O)O)C(C)C)C(C)C", "note": "[Example 33, N^ε24-[(4S)-4-carboxy-4-[[2-[2-[2-[[2-[2-[2-[[(4S)-4-carboxy-4-(17-carboxyheptadecanoylamino)butanoyl]amino]ethoxy]ethoxy]acetyl]amino]ethoxy]ethoxy]acetyl]amino]butanoyl]-[Glu15,Lys24,Leu27,Val29]-Glucagon]", "values": [
      {"measurement": "pEC50", "value": 9.04}
    ]},
    {"smiles": "CC(C)C[C@H](NC(=O)[C@H](CC(N)=O)NC(=O)[C@H](CC(C)C)NC(=O)[C@H](CC(C)C)NC(=O)[C@H](Cc1c[nH]c2ccccc12)NC(=O)[C@H](CCCCNC(=O)CC[C@H](NC(=O)COCCOCCNC(=O)COCCOCCNC(=O)CC[C@H](NC(=O)CCCCCCCCCCCCCCCCC(=O)O)C(=O)O)C(=O)O)NC(=O)[C@@H](NC(=O)[C@H](Cc1ccccc1)NC(=O)[C@H](CC(=O)O)NC(=O)[C@H](CCC(N)=O)NC(=O)[C@H](C)NC(=O)[C@H](CCCNC(=N)N)NC(=O)[C@H](CCCNC(=N)N)NC(=O)[C@H](CO)NC(=O)[C@H](CCC(=O)O)NC(=O)[C@H](CC(C)C)NC(=O)[C@H](Cc1ccc(O)cc1)NC(=O)[C@H](CCCCN)NC(=O)[C@H](CO)NC(=O)[C@H](Cc1ccc(O)cc1)NC(=O)[C@H](CC(=O)O)NC(=O)[C@H](CO)NC(=O)[C@@H](NC(=O)[C@H](Cc1ccccc1)NC(=O)[C@@H](NC(=O)CNC(=O)[C@H](CCC(N)=O)NC(=O)[C@H](CO)NC(=O)[C@@H](N)Cc1c[nH]cn1)[C@@H](C)O)[C@@H](C)O)C(C)C)C(=O)O", "note": "[Example 34, N^ε24-[(4S)-4-carboxy-4-[[2-[2-[2-[[2-[2-[2-[[(4S)-4-carboxy-4-(17-carboxyheptadecanoylamino)butanoyl]amino]ethoxy]ethoxy]acetyl]amino]ethoxy]ethoxy]acetyl]amino]butanoyl]-[Glu15,Lys24,Leu27,Leu29]-Glucagon]", "values": [
      {"measurement": "pEC50", "value": 8.72}
    ]},
    {"smiles": "CC[C@H](C)[C@H](NC(=O)[C@H](CC(N)=O)NC(=O)[C@H](CC(C)C)NC(=O)[C@H](CC(C)C)NC(=O)[C@H](Cc1c[nH]c2ccccc12)NC(=O)[C@H](CCCCNC(=O)CC[C@H](NC(=O)COCCOCCNC(=O)COCCOCCNC(=O)CC[C@H](NC(=O)CCCCCCCCCCCCCCCCC(=O)O)C(=O)O)C(=O)O)NC(=O)[C@@H](NC(=O)[C@H](Cc1ccccc1)NC(=O)[C@H](CC(=O)O)NC(=O)[C@H](CCC(N)=O)NC(=O)[C@H](C)NC(=O)[C@H](CCCNC(=N)N)NC(=O)[C@H](CCCNC(=N)N)NC(=O)[C@@H](NC(=O)[C@H](CC(=O)O)NC(=O)[C@H](CC(C)C)NC(=O)[C@H](Cc1ccc(O)cc1)NC(=O)[C@H](CCCCN)NC(=O)[C@H](CO)NC(=O)[C@H](Cc1ccc(O)cc1)NC(=O)[C@H](CC(=O)O)NC(=O)[C@H](CO)NC(=O)[C@@H](NC(=O)[C@H](Cc1ccccc1)NC(=O)[C@@H](NC(=O)CNC(=O)[C@H](CCC(N)=O)NC(=O)[C@H](CO)NC(=O)[C@@H](N)Cc1c[nH]cn1)[C@@H](C)O)[C@@H](C)O)[C@@H](C)O)C(C)C)C(=O)O", "note": "[Example 35, N^ε24-[(4S)-4-carboxy-4-[[2-[2-[2-[[2-[2-[2-[[(4S)-4-carboxy-4-(17-carboxyheptadecanoylamino)butanoyl]amino]ethoxy]ethoxy]acetyl]amino]ethoxy]ethoxy]acetyl]amino]butanoyl]-[Thr16,Lys24,Leu27,Ile29]-Glucagon]", "values": [
      {"measurement": "pEC50", "value": 9.38}
    ]},
    {"smiles": "CC(C)C[C@H](NC(=O)[C@H](Cc1c[nH]c2ccccc12)NC(=O)[C@H](CCCCNC(=O)CC[C@H](NC(=O)COCCOCCNC(=O)COCCOCCNC(=O)CC[C@H](NC(=O)CCCCCCCCCCCCCCCCC(=O)O)C(=O)O)C(=O)O)NC(=O)[C@@H](NC(=O)[C@H](Cc1ccccc1)NC(=O)[C@H](CCC(=O)O)NC(=O)[C@H](CCC(N)=O)NC(=O)[C@H](C)NC(=O)[C@H](CCCNC(=N)N)NC(=O)[C@H](CCCNC(=N)N)NC(=O)[C@@H](NC(=O)[C@H](CC(=O)O)NC(=O)[C@H](CC(C)C)NC(=O)[C@H](Cc1ccc(O)cc1)NC(=O)[C@H](CCCCN)NC(=O)[C@H](CO)NC(=O)[C@H](Cc1ccc(O)cc1)NC(=O)[C@H](CC(=O)O)NC(=O)[C@H](CO)NC(=O)[C@@H](NC(=O)[C@H](Cc1ccccc1)NC(=O)[C@@H](NC(=O)CNC(=O)[C@H](CCC(N)=O)NC(=O)[C@H](CO)NC(=O)[C@@H](N)Cc1c[nH]cn1)[C@@H](C)O)[C@@H](C)O)[C@@H](C)O)C(C)C)C(=O)N[C@@H](CC(C)C)C(=O)N[C@@H](CC(N)=O)C(=O)N[C@H](C(=O)O)C(C)C", "note": "[Example 36, N^ε24-[(4S)-4-carboxy-4-[[2-[2-[2-[[2-[2-[2-[[(4S)-4-carboxy-4-(17-carboxyheptadecanoylamino)butanoyl]amino]ethoxy]ethoxy]acetyl]amino]ethoxy]ethoxy]acetyl]amino]butanoyl]-[Thr16,Glu21,Lys24,Leu27,Val29]-Glucagon] (H-HSQGTFTSDYSKYLDTRRAQEFVK([γGlu-AEEA-AEEA-γGlu-C18 diacid])WLLNV-OH)", "values": [
      {"measurement": "pEC50", "value": 9.92}
    ]}
  ]
}
